Assay results as given in US20030148264A1, “Phage displayed PDZ domain ligands” (GENENTECH, INC., priority 2001, published 2003).
pIC50: −log10 of the molar value. Read-outs that look alike come from different tables or passages of the source. Values belong to the compound of their own block, whether it stands above or below them. Where a SMILES comes first, the peptide text is derived from it. Where no end group is shown, it is not given here.

Key:
ERBIN PDZ domain = ERBIN PDZ domain (Homo sapiens, UniProt Q96RT1); test: Competition ELISA, ERBIN PDZ-GST binding to immobilized biotinylated peptide; parameters: made in house; host or cells: E. coli; settings: for fold less potent than Ac-WETWV (SEQ ID NO:225): Alanine scanning of WETWV peptide
Method: Binding affinities of the peptides for the ERBIN PDZ domain were determined as IC50 values using competition ELISAs. […] Assay plates were prepared by coating Maxisorp plates overnight at 4° C. with 65 μl of a 2 μg/ml solution of neutravidin in PBS. The plates were then blocked through addition of 65 μl of a 1% solution of bovine serum albumin (BSA) in PBS for 1 hour at room temperature, then washed 10 times with PBS containing 0.05% Tween-20. 65 μl of the amino-terminally biotinylated peptide PDZ 501 (TGWETWV; SEQ ID NO:222) was then added at a concentration of 100 nM in PBS with 0.5% BSA and 0.05% Tween-20 and incubated for 1 hour at room temperature. Simultaneously, binding reactions consisting of serial dilutions of the test compounds in PBS with 0.5% BSA and 0.05% Tween-20 containing 2 μg/ml ERBIN PDZ-GST fusion protein were incubated for 1 hour at room temperature. The plate coated with the immobilized peptide was again washed 10 times before 65 μl of each binding reaction was added to a well and incubated for 15 minutes at room temperature. The plates were again washed 10 times before being developed by incubating for 30 minutes with a 1:1000 dilution of anti-mouse HRP conjugated antibody and a 1:2000 dilution of a mouse anti-GST antibody in PBS with 0.5% BSA and 0.05% Tween-20. The plates were washed 10 times, then incubated with 100 μl HRP substrate for 5 minutes and the color developed through addition of 100 μl of 1 M H3PO4. The plates were read at 450 nm and the absorption fit to a binding curve using a least squares fit.
Binding affinities of the peptides for the ERBIN PDZ domain were determined as IC50 values using competition ELISAs. […] Assay plates were prepared by coating microwell plates overnight with neutravidin. The plates were then blocked through addition of BSA, and then amino-terminally biotinylated WETWV (SEQ ID NO:225) was then bound to the plates. Simultaneously, binding reactions consisting of serial dilutions of the test peptides with ERBIN PDZ-GST fusion proteins were performed. The plate coated with the immobilized WETWV (SEQ ID NO:225) was extensively washed before adding each binding reaction to the wells and briefly incubated. After further washing, anti-mouse HRP conjugated antibody and a mouse anti-GST antibody were added. The plates were then developed with HRP substrate and H3PO4, and then read at 450 nm. The absorption fit to a binding curve using a least squares fit. Thus the ability of the various peptides to inhibit ERBIN PDZ domain from binding its cognate was measured. […]

hZO1 PDZ1 = target: T1, hZO1 PDZ1 (Homo sapiens, UniProt Q07157); test: IC50 (nM) | hZO1 PDZ1 | 5 nM | B01-88 | Bio-GGWRWTTWL (SEQ ID NO 684) | 36 nM
T1 construct: Human ZO1 (NM_003257) PDZ1; GST; made in house
Method: (§1) Table printed on a drawing sheet, Fig. 12
Head of the field: IC50 (nM) | hZO1 PDZ1 | 5 nM | B01-88 | Bio-GGWRWTTWL (SEQ ID NO 684) | 36 nM
(§2) The patent's description of the figure: FIG. 12. IC50 values indicating binding affinities of various peptides to PDZ domains
(§3) First copying reader's note: The first column (three lines per block: protein, accession, PDZ domain) is treated as one cell spanning its block; an empty ruled row above the IC50/SD head is left out; #### cells are spreadsheet overflow marks as printed; several heads and cells are cut off at the left by the print (ample, eptide No, EQ ID NO).
Where the first naming reader finds the target: head: IC50 (nM) | hZO1 PDZ1 | 5 nM | B01-88

[1] = target: GST-MAGI-3 PDZ 2 (aa. 584-707 of SEQ ID NO:200) (human) [GST: P08515]; test: competition ELISA: peptide blocks GST-PDZ binding to immobilized peptide
[2] = target: ERBIN PDZ-GST fusion protein (aa. 1217-1371 of SEQ ID NO:201) (human) [GST: P08515]; test: competition ELISA: ERBIN PDZ-GST binding to immobilized biotin-WETWV
Erbin PDZ = target: T2, Erbin PDZ (Homo sapiens, UniProt Q96RT1); test: IC50 (nM) | Erbin PDZ | 2 nM | PDZ501 | Bio-Ac-GGWETWV (SEQ ID NO 687) | 37 nM
T2 construct: made in house; host or cells: E. coli
Method: as §1, §2, §3
Where the first naming reader finds the target: head: IC50 (nM) | Erbin PDZ | 2 nM | PDZ501

[3] = Small molecules that inhibit ERBIN PDZ domain from binding immobilized WETWV, read-out: IC50
[4] = Substitutions for threonine at the −2 position and glutamate at the −3 position
[5] = ERBIN peptide truncations without N-terminal acylation
[6] = ERBIN peptide truncations with N-terminal acylation
[7] = Substitutions for tryptophan at the −1 position

ERBIN PDZ domain, sequence (Q96RT1 1258-1412): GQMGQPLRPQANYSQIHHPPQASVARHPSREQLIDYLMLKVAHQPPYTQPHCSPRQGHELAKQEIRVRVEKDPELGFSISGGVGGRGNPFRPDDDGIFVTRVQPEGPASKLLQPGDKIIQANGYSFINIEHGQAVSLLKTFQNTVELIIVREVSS
ERBIN PDZ-GST fusion protein (aa. 1217-1371 of SEQ ID NO:201) (human) [GST: P08515], sequence (P08515 whole entry, the tested form may be a part): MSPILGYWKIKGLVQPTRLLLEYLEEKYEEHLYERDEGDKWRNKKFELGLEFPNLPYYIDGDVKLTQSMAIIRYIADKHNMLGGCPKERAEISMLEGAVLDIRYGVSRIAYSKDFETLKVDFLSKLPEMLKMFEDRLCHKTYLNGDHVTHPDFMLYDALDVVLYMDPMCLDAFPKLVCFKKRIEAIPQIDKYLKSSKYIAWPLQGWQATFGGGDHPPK
T1 sequence (Q07157 23-110): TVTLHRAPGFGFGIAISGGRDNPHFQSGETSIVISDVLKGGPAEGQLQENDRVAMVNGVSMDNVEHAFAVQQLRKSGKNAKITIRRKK
GST-MAGI-3 PDZ 2 (aa. 584-707 of SEQ ID NO:200) (human) [GST: P08515], sequence (P08515 whole entry, the tested form may be a part): as the sequence (P08515 whole entry, the tested form may be a part) above
T2 sequence (Q96RT1 1258-1412): as the sequence (Q96RT1 1258-1412) above

- pIC50 (ERBIN PDZ domain; [3]): 3.52
Compound: CC(C)C(NC(=O)C(Cc1cc2ccccc2[nH]1)NC(=O)C1CCc2ccccc2C1)C(=O)O (centres unmarked) [WV 38]

Compound: Ac-WDTWV [Ac-WDTWV]
- pIC50 (ERBIN PDZ domain): 5.77
- fold less potent than Ac-WETWV (ERBIN PDZ domain; [4]): 3.4 fold

- pIC50 (ERBIN PDZ domain; [3]): 3.48
Compound: CC(C)C(NC(=O)C(Cc1cc2ccccc2[nH]1)NC(=O)c1cnc2ccccc2n1)C(=O)O (centres unmarked) [WV 46]

Compound: H-GWETWV [H1N-GWETWV]
- pIC50 (ERBIN PDZ domain): 5.85
- fold less potent than H1N -GWETWV (ERBIN PDZ domain; [5]): 1.0 fold

- IC50 (hZO1 PDZ1): 4620 nM
Compound: Ac-YSRSQYV [16 | 01-95, SEQ ID NO 655 N^AC-YSRSQYV]

- pIC50 [1]: 6.52
Compound: HTQITWV (peptide)

Compound: Ac-WEVWV [Ac-WEVWV]
- pIC50 (ERBIN PDZ domain): 5.32
- fold less potent than Ac-WETWV (ERBIN PDZ domain; [4]): 9.8 fold

- fold less potent than H1N -GWETWV (ERBIN PDZ domain; [5]): 73.6 fold
- pIC50 (ERBIN PDZ domain; ERBIN peptide truncations without N-terminal acylation, read-out: IC50): 3.98
Compound: CC(C)[C@H](NC(=O)[C@H](Cc1c[nH]c2ccccc12)NC(=O)[C@@H](N)[C@@H](C)O)C(=O)O [H1N -TWV] (H-Thr-Trp-Val-OH; C-terminus assumed)

Compound: Ac-WEAWV [Ac-WEAWV]
- pIC50 (ERBIN PDZ domain): 4.91
- fold less potent than Ac-WETWV (SEQ ID NO:225) (ERBIN PDZ domain): 25.3 fold

- fold less potent than Ac-GWETWV (ERBIN PDZ domain; [6]): 5.1 fold
- pIC50 (ERBIN PDZ domain; ERBIN peptide truncations with N-terminal acylation, read-out: IC50): 5.31
Compound: CC(=O)N[C@@H](CCC(=O)O)C(=O)N[C@H](C(=O)N[C@@H](Cc1c[nH]c2ccccc12)C(=O)N[C@H](C(=O)O)C(C)C)[C@@H](C)O [Ac-ETWV] (Ac-ETWV-OH; C-terminus assumed)

- IC50 (hZO1 PDZ1): 12400 nM
Compound: Ac-YSLTGYV [15 | 01-94, SEQ ID NO 654 N^AC-YSLTGYV]

- pIC50 [2]: 3.98
- fold less potent than H1N -GWETWV [2]: 73.6 fold
Compound: H1N -TWV (peptide)

- IC50 (hZO1 PDZ1): 28600 nM
Compound: Ac-YRLNDYV [18 | 01-98, SEQ ID NO 657 N^AC-YRLNDYV]

- IC50 (hZO1 PDZ1): 21400 nM
Compound: Ac-ERIWFV [29 | 01-24, SEQ ID NO 668 NAC-ERIWFV]

- IC50 (Erbin PDZ): 19800 nM
- IC50 (hZO1 PDZ1): 12600 nM
Compound: Ac-KETWL [20 | 01-05, SEQ ID NO 659 N^AC-KETWL]

Compound: Ac-WETWV [Ac-WETWV]
- pIC50 (ERBIN PDZ domain): 6.30
- fold less potent than Ac-WETWV (SEQ ID NO:225) (ERBIN PDZ domain): 1 fold
- fold less potent than Ac-GWETWV (ERBIN PDZ domain; [6]): 0.5 fold
- fold less potent than Ac-WETWV (ERBIN PDZ domain; [4]): 1 fold
- fold less potent than Ac-WETWV (ERBIN PDZ domain; [7]): 1 fold

Compound: Ac-WETFV [Ac-WETFV]
- pIC50 (ERBIN PDZ domain): 4.84
- fold less potent than Ac-WETWV (ERBIN PDZ domain; [7]): 295 fold

Compound: Ac-WETYV [Ac-WETYV]
- pIC50 (ERBIN PDZ domain): 4.37
- fold less potent than Ac-WETWV (ERBIN PDZ domain; [7]): 86.7 fold

- pIC50 (ERBIN PDZ domain; [3]): 3.26
Compound: CC(C)C(NC(=O)C(Cc1cc2ccccc2[nH]1)NC(=O)c1cc2ccccc2[nH]1)C(=O)O (centres unmarked) [WV 66]

Compound: Ac-WESWV [Ac-WESWV]
- pIC50 (ERBIN PDZ domain): 5.60
- fold less potent than Ac-WETWV (ERBIN PDZ domain; [4]): 5.2 fold

- IC50 (hZO1 PDZ1): 20100 nM
Compound: Ac-WELLI [38 | 01-21, SEQ ID NO 677 NAC-WELLI]

- pIC50 [2]: 6.22
- fold less potent than Ac-WETWV [2]: 1.1 fold
Compound: Ac-WETNapV (peptide)

- pIC50 [1]: 3.70
Compound: HTQITKV (peptide)

- IC50 (hZO1 PDZ1): 2030 nM
Compound: Ac-KTSTSYV [14 | 01-97, SEQ ID NO 653 N^AC-KTSTSYV]

- IC50 (hZO1 PDZ1): 5310 nM
Compound: Ac-KSTWL [23 | 01-03, SEQ ID NO 662 N^AC-KSTWL]
